We go through 11 compounds from patent publication US11590139B2, “Substituted aminopurine compounds, compositions thereof, and methods of treatment therewith” (Signal Pharmaceuticals, LLC, priority 2014, dated 2023).

The first test concerns Lox-IMVI melanoma cell line. Briefly: Lox-IMVI anti-proliferative assay (growth inhibition, Cell Titer-Glo). The class given is cell-based, human. The settings on record: Homo sapiens; IC50 activity level in the cell-based Lox-IMVI anti-proliferative assay; read-out: Activity. The essentials:
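Luminescence from cellular ATP measured viability at compound addition and again after 72 h of exposure (37 °C, 5% CO2, RPMI + 10% FBS). Doses spanned 0.5 nM to 10 μM in ten 3-fold steps with 0.2% DMSO. Values were fitted as % of DMSO-treated cells by sigmoidal dose-response.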
Consider `NC(=O)[C@H]1CC[C@@H](n2c(Nc3c(Cl)cccc3Cl)nc3cnc(N[C@@H]4CCC[C@H]4O)nc32)CC1` [Example 253, (1S,4s)-4-(8-(2,6-dichlorophenylamino)-2-((1R,2R)-2-hydroxycyclopentylamino)-9H-purin-9-yl)cyclohexanecarboxamide], for which the IC50 was more than 1 µM.

On to `Cc1cc(F)c(Nc2nc3cnc(NC4CCOCC4)nc3n2[C@H]2CC[C@@H](C(N)=O)CC2)cc1F` [Example 106, (1s,4s)-4-(8-(2,5-difluoro-4-methylphenylamino)-2-(tetrahydro-2H-pyran-4-ylamino)-9H-purin-9-yl)cyclohexanecarboxamide], for which the IC50 was more than 1 µM.

Turning to `C[C@@H](CO)Nc1ncc2nc(Nc3c(Cl)cc(C#N)cc3Cl)n([C@H]3CC[C@@H](C(N)=O)CC3)c2n1` [Example 366, (1R,4s)-4-(8-(2,6-dichloro-4-cyanophenylamino)-2-((S)-1-hydroxypropan-2-ylamino)-9H-purin-9-yl)cyclohexanecarboxamide], the IC50 is less than 0.25 µM.

In the case of `N#Cc1cc(F)c(Nc2nc3cnc(NC4CCOCC4)nc3n2[C@H]2CC[C@@H](C(N)=O)CC2)c(Cl)c1` [Example 308, (1s,4s)-4-(8-(2-chloro-4-cyano-6-fluorophenylamino)-2-(tetrahydro-2H-pyran-4-ylamino)-9H-purin-9-yl)cyclohexanecarboxamide], the IC50 is less than 0.25 µM.

For the compound `NC(=O)[C@H]1CC[C@@H](n2c(Nc3c(Cl)cc(Cl)cc3Cl)nc3cnc(N[C@H]4CCNC[C@H]4F)nc32)CC1` [Example 138, (1R,4s)-4-(2-((3R,4S)-3-fluoropiperidin-4-ylamino)-8-(2,4,6-trichlorophenylamino)-9H-purin-9-yl)cyclohexanecarboxamide], the IC50 is more than 1 µM.

Staying with this test, now noted: Homo sapiens; Lox-IMVI anti-proliferative assay, IC50 activity level; read-out: Activity.
With `N#Cc1cc(F)c(Nc2nc3cnc(N[C@@H]4CCOC4)nc3n2[C@H]2CC[C@@H](C(N)=O)CC2)c(Cl)c1` [Example 520, (1S,4s)-4-(8-(2-chloro-4-cyano-6-fluorophenylamino)-2-((R)-tetrahydrofuran-3-ylamino)-9H-purin-9-yl)cyclohexanecarboxamide], the IC50 is 0.25 to 0.5 µM.

In the case of `NC(=O)[C@H]1CC[C@@H](n2c(Nc3c(F)cc(Cl)cc3F)nc3cnc(N[C@H]4CCC(F)(F)C4)nc32)CC1` [Example 587, (1R,4s)-4-(8-(4-chloro-2,6-difluorophenylarnino)-2-((S)-3,3-difluorocyclopentylamino)-9H-purin-9-yl)cyclohexanecarboxamide], the IC50 lay within 0.25 to 0.5 µM.

For the compound `C[C@]1(O)CCC[C@@H](Nc2ncc3nc(Nc4c(Cl)cc(F)cc4Cl)n([C@H]4CC[C@@H](C(N)=O)CC4)c3n2)C1` [Example 428, (1S,4s)-4-(8-(2,6-dichloro-4-fluorophenylamino)-2-((1R,3S)-3-hydroxy-3-methylcyclohexylamino)-9H-purin-9-yl)cyclohexanecarboxamide], the IC50 is more than 1 µM.

Staying with this test, now noted: Homo sapiens; Lox-IMVI melanoma cell line, anti-proliferative assay; read-out: Activity (IC50 activity level).
As to `NC(=O)[C@H]1CC[C@@H](n2c(Nc3c(F)cc(F)cc3F)nc3cnc(N[C@@H]4CCCN(C(=O)Nc5ccccc5)C4)nc32)CC1` [Example 781, (R)-3-(9-((1s,4S)-4-carbamoylcyclohexyl)-8-(2,4,6-trifluorophenylamino)-9H-purin-2-ylamino)-N-phenylpiperidine-1-carboxamide], the IC50 was more than 1 µM.

For `N#Cc1cc(F)c(Nc2nc3cnc(NC[C@@H]4CCCC[C@H]4O)nc3n2[C@H]2CC[C@@H](C(N)=O)CC2)c(Cl)c1` [Example 664, (1R,4s)-4-(8-(2-chloro-4-cyano-6-fluorophenylamino)-2-(((1S,2R)-2-hydroxycyclohexyl)methylamino)-9H-purin-9-yl)cyclohexanecarboxamide], the IC50 was more than 1 µM.

On to `NC(=O)[C@H]1CC[C@@H](n2c(Nc3c(Cl)cc(Cl)cc3Cl)nc3cnc(NC[C@@H]4CCCC[C@H]4O)nc32)CC1` [Example 661, (1R,4s)-4-(2-(((1S,2R)-2-hydroxycyclohexyl)methylamino)-8-(2,4,6-trichlorophenylamino)-9H-purin-9-yl)cyclohexanecarboxamide], for which the IC50 is more than 1 µM.
